Patent US9650405B2, “Modified sophorolipids as oil solubilizing agents” (Polytechnic Institute of New York University, priority 2010, dated 2017)

Tests used:
[1] = Lemon oil solubilization, sonication, droplet size by dynamic light scattering; format: physicochemical
Description: MSL's used in this example are SL-hexyl ester (16), SL-octyl ester SL (17), and SL-dodecyl ester (18). To test the MSL capacity for lemon oil solubilization, the volume ratio of water to lemon oil, the concentration of surfactant, and the homogenization time (using a sonicator as the means of homogenization) were varied. Concentration of surfactant is calculated on a w/w basis relative to the mass of water being used. To form emulsions, the MSL or other surfactant is first dissolved in the water, oil is added to the solution, and finally the contents of the water/surfactant+oil system is sonicated. Subsequently, the emulsion is allowed to settle for 24 hours at 25° C. before measurements or visual observations are made.
To evaluate the stability of lemon oil solubilization, photographs of emulsions were recorded daily (after the initial 24 hours). Visual observations consisted of assessing solution clarity, extent of creaming and whether oil separation occurs. After selected time periods measurement of emulsion droplet size was performed by dynamic light scattering, which gives an average droplet size in the solution. […] If the emulsion had creamed (separated into two discreet emulsion layers) the average droplet size for each emulsion layer was determined. The results of this study are listed in Table 6, where the first number represents average droplet size in the top emulsion layer and the second represents the average droplet size in the bottom emulsion layer. […] A better performing emulsifier for this study is defined as functioning to form emulsions with smaller average particle size after the aging period.

[2] = Crude oil clearing/displacement activity; details: 20 μL of 1 mg/mL solution
Description: Oil cleaning assays were performed using Louisiana Crude, Arabian Light Crude, and Prudhoe Bay Crude as the oil phase. In one study, the oil clearing/displacement activity of MSLs were assessed using a crude oil layer on top of sea water in order to simulate oil spill type conditions. Sea water (20 mL) was transferred to plastic Petri dishes and 20 μL of a crude oil type was added on top of the water to create an oil layer. Subsequently, a 20 μL aliquot of MSL solution (1 mg/mL) was added dropwise to the top of the oil layer. The instantaneous formation of an oil clearing zone as well as the diameter of the clearing zone was determined as a function of the dispersant used. […] Furthermore, the oil displacement activity of SL-ethyl ester and SL-butyl ester was slightly higher than Triton-X-100 for Arabian Light crude.

[3] = Crude oil emulsification activity (turbidity at 610 nm); details: emulsifier 1 mg/mL
Description: Emulsification activity was assessed using Louisiana Crude, Arabian Light Crude, and Prudhoe Bay Crude as the oil phase. A 2 mL solution with emulsifier concentration of 1 mg/mL was prepared. A crude oil (10 mg) was added to the emulsifier aqueous solution, the mixture was vortexed for one minute and the emulsified mixture was allowed to stand for 20 minutes. Emulsification activity was determined by measuring turbidity of the emulsion mixture in a spectrophotometer at 610 nm. The results obtained using SL-ethyl ester, SL-butyl ester, the natural sophorolipid mixture and Triton X-100 as emulsifiers are expressed as D610 and are listed in Table 8. […] Furthermore, a remarkable improvement in emulsification activity was obtained for SL-butyl ester relative to the natural sophorolipid mixture. These comparative results for emulsification of Louisiana Crude, Arabian Light Crude, and Prudhoe Bay Crude oil phase could not be anticipated by one skilled in the art.

[4] = lemon oil/water 1/99, sonication 120 sec, 0.5 wt %, 1 Month
[5] = lemon oil/water 5/95, sonication 60 sec, 0.25 weight-%, 1 Month
[6] = lemon oil/water 5/95, sonication 60 sec, 1 weight-%, 1 Month
[7] = lemon oil/water 5/95, sonication 60 sec, 1 weight-%, 1 Week
[8] = lemon oil/water 5/95, sonication 120 sec, 0.25 weight-%, 1 Month
[9] = lemon oil/water 5/95, sonication 120 sec, 0.5 weight-%, 1 Month
[10] = lemon oil/water 5/95, sonication 120 sec, 0.5 weight-%, 1 Week
[11] = lemon oil/water 5/95, sonication 120 sec, 1 weight-%, 1 Month
[12] = lemon oil/water 5/95, sonication 120 sec, 1 weight-%, 1 Week

With `CCCCCCOC(=O)CCCCCCCC=CCCCCCCC(C)OC1OC(CO)C(O)C(O)C1OC1OC(CO)C(O)C(O)C1O` (stereo not drawn) [Compound 16, SL-Hexyl Ester] the “average droplet sizes after one month” value ([1]; lemon oil emulsions, after one month) was “below 1 μm”, the “Emulsion Droplet Size” value ([1]; lemon oil/water 1/99, sonication 60 sec, 0.25 weight-%, 1 Month) was 138 nm and the “Emulsion Droplet Size” value ([1]; lemon oil/water 1/99, sonication 60 sec, 0.25 weight-%, 1 Week) was 200 nm. For the same compound, the “Emulsion Droplet Size” value ([1]; lemon oil/water 1/99, sonication 60 sec, 1 weight-%, 1 Month) was 52 nm, the “Emulsion Droplet Size” value ([1]; lemon oil/water 1/99, sonication 60 sec, 1 weight-%, 1 Week) was 22 nm and the “Emulsion Droplet Size” value ([1]; lemon oil/water 1/99, sonication 120 sec, 0.25 weight-%, 1 Month) was 105 nm. The “Emulsion Droplet Size” value ([1]; lemon oil/water 1/99, sonication 120 sec, 0.25 weight-%, 1 week) was 149 nm, the “Emulsion Droplet Size, bottom emulsion layer” value [1, 4] was 82 nm and the “Emulsion Droplet Size, top emulsion layer” value [1, 4] was 287 nm. The “Emulsion Droplet Size” value ([1]; lemon oil/water 1/99, sonication 120 sec, 0.5 wt %, 1 Week) was 255 nm, the “Emulsion Droplet Size” value ([1]; lemon oil/water 1/99, sonication 120 sec, 1 weight-%, 1 Month) was 26 nm and the “Emulsion Droplet Size” value ([1]; lemon oil/water 1/99, sonication 120 sec, 1 weight-%, 1 Week) was 20 nm. For the same compound, the “Emulsion Droplet Size, bottom emulsion layer” value [1, 5] was 177 nm, the “Emulsion Droplet Size, top emulsion layer” value [1, 5] was 506 nm and the “Emulsion Droplet Size” value ([1]; lemon oil/water 5/95, sonication 60 sec, 0.25 weight-%, 1 week) was 330 nm. For the same compound, the “Emulsion Droplet Size, bottom emulsion layer” value [1, 6] was 32 nm, the “Emulsion Droplet Size, top emulsion layer” value [1, 6] was 471 nm and the “Emulsion Droplet Size, bottom emulsion layer” value [1, 7] was 112 nm. For the same compound, the “Emulsion Droplet Size, top emulsion layer” value [1, 7] was 313 nm, the “Emulsion Droplet Size, bottom emulsion layer” value [1, 8] was 166 nm and the “Emulsion Droplet Size, top emulsion layer” value [1, 8] was 450 nm. The “Emulsion Droplet Size” value ([1]; lemon oil/water 5/95, sonication 120 sec, 0.25 weight-%, 1 week) was 325 nm, the “Emulsion Droplet Size, bottom emulsion layer” value [1, 9] was 120 nm and the “Emulsion Droplet Size, top emulsion layer” value [1, 9] was 505 nm. The “Emulsion Droplet Size, bottom emulsion layer” value [1, 10] was 29 nm, the “Emulsion Droplet Size, top emulsion layer” value [1, 10] was 320 nm and the “Emulsion Droplet Size, bottom emulsion layer” value [1, 11] was 25 nm. The “Emulsion Droplet Size, top emulsion layer” value [1, 11] was 518 nm, the “Emulsion Droplet Size, bottom emulsion layer” value [1, 12] was 246 nm and the “Emulsion Droplet Size, top emulsion layer” value [1, 12] was 336 nm.

In the case of `CCCCOC(=O)CCCCCCCC=CCCCCCCC(C)OC1OC(CO)C(O)C(O)C1OC1OC(CO)C(O)C(O)C1O` (stereo not drawn) [Compound 8, SL-Butyl Ester], the “Oil displacement activity (diameter of the clearing zone)” value (shortened to “Oil displacement activity”) ([2]; Arabian Light Crude on sea water) is reported as 6.7 ± 0.14 cm, the “Oil displacement activity” value ([2]; Louisiana Crude on sea water) is reported as 8.7 ± 0.35 cm and the “Oil displacement activity” value ([2]; Prudhoe Bay Crude on sea water) is reported as 7.5 cm. For the same compound, the “Emulsification activity (D610)” value ([3]; Arabian Crude) was 1.77, the “Emulsification activity (D610)” value ([3]; Louisiana Crude) was 1.50 and the “Emulsification activity (D610)” value ([3]; Prudhoe Crude) was 1.58.
